According to PubChem BioAssay AID288 (DTP/NCI, 2004):
“And” between values parts separate entries of the source, which are not always exact repeats. Equal values may be shown once. Results filed as inconclusive are left out. Numbered stars: 1 amine (or outer) side, 2 acyl side, 3 side chain; on linkers, the order of the positions; unused ones are H or OH. Bridge positions count the residues as written; N and C are the ends. Square brackets hold non-standard residues; d marks the D form. Peptide text beside a SMILES is read from it. I, II: the chains in the order shown. Actinocin(9to1) = Cc1c2oc3c(C)ccc(C(=O)[*:1])c3nc-2c(C(=O)[*:2])c(N)c1=O; aThr = C[C@H](O)[C@H](N)C(=O)O; NMeV = CN[C@H](C(=O)O)C(C)C; Sar = CNCC(=O)O

Tested on: BDF1 mice, M5076 sarcoma s.c., survival/tumor T/C
Assay: NCI In Vivo Anticancer Drug Screen. Data for tumor model Sarcoma M5076 (subcutaneous) in B6D2F1 (BDF1) mice
Method: The antitumor activity of compounds was measured in mice bearing transplantable tumors. Survival or tumor size were measured and the results are expressed as the measurement made in the treated group (T) divided by the measurement made in the vehicle treated control group (C). The tumor model used in this assay is Sarcoma M5076 (subcutaneous) in B6D2F1 (BDF1) mice

[1] = endpoint: median survival time, dose: 50.0 mg/kg/injection, schedule: Q01DX009 (ip), vehicle: saline with Tween-80, higher = longer survival
[2] = endpoint: median survival time, dose: 100.0 mg/kg/injection, schedule: Q01DX009 (ip), vehicle: saline with Tween-80, higher = longer survival
[3] = endpoint: median survival time, dose: 200.0 mg/kg/injection, schedule: Q01DX009 (ip), vehicle: saline with Tween-80, higher = longer survival
[4] = endpoint: median tumor weight (est.), dose: 100.0 mg/kg/injection, schedule: Q01DX009 (ip), vehicle: saline with Tween-80, higher = larger tumour

## O=CC(NC(=O)N(CCCl)N=O)C(O)C(O)C(O)CO (stereo not drawn)
endpoint: mean tumor weight, dose: 0.75 mg/kg/injection, schedule: Q02DX011 (ip), vehicle: saline, higher = larger tumour
  T/C: 100 % of control
endpoint: mean tumor weight, dose: 1.5 mg/kg/injection, schedule: Q02DX011 (ip), vehicle: saline, higher = larger tumour
  T/C: 33 % of control
endpoint: mean tumor weight, dose: 3.0 mg/kg/injection, schedule: Q02DX011 (ip), vehicle: saline, higher = larger tumour
  T/C: 6 % of control
endpoint: median survival time, dose: 4.32 mg/kg/injection, schedule: Q04DX003 (ip), vehicle: saline, higher = longer survival
  T/C: 182 % of control
endpoint: median survival time, dose: 6.17 mg/kg/injection, schedule: Q04DX003 (ip), vehicle: saline, higher = longer survival
  T/C: 152 % of control and 153 % of control
endpoint: median survival time, dose: 6.86 mg/kg/injection, schedule: Q01DX001 (ip), vehicle: saline, higher = longer survival
  T/C: 109 % of control
endpoint: median survival time, dose: 8.82 mg/kg/injection, schedule: Q04DX003 (ip), vehicle: saline, higher = longer survival
  T/C: 179 % of control and 181 % of control
endpoint: median survival time, dose: 9.8 mg/kg/injection, schedule: Q01DX001 (ip), vehicle: saline, higher = longer survival
  T/C: 111 % of control and 113 % of control
endpoint: median survival time, dose: 12.6 mg/kg/injection, schedule: Q04DX003 (ip), vehicle: saline, higher = longer survival
  T/C: 186 % of control and 188 % of control
endpoint: median survival time, dose: 18.0 mg/kg/injection, schedule: Q04DX003 (ip), vehicle: saline, higher = longer survival
  T/C: 205 % of control
endpoint: median survival time, dose: 20.0 mg/kg/injection, schedule: Q01DX001 (ip), vehicle: saline, higher = longer survival
  T/C: 155 % of control and 156 % of control
endpoint: median tumor weight (est.), dose: 0.75 mg/kg/injection, schedule: Q02DX011 (ip), vehicle: saline, higher = larger tumour
  T/C: 118 % of control
endpoint: median tumor weight (est.), dose: 1.5 mg/kg/injection, schedule: Q02DX011 (ip), vehicle: saline, higher = larger tumour
  T/C: 5 % of control
endpoint: median tumor weight (est.), dose: 3.0 mg/kg/injection, schedule: Q02DX011 (ip), vehicle: saline, higher = larger tumour
  T/C: 4 % of control

## COC(=O)C(Cc1ccccc1)NS(=O)(=O)c1ccc(C)cc1 (stereo not drawn)
[1]
  T/C: 98 % of control
[2]
  T/C: 106 % of control
[3]
  T/C: 97 % of control
[4]
  T/C: 118 % of control

## CC1(C)OC(C)(C)c2c1nnc(-c1cccc([N+](=O)[O-])c1)[n+]2[O-]
[1]
  T/C: 110 % of control
[2]
  T/C: 113 % of control
[3]
  T/C: 113 % of control
endpoint: median tumor weight (est.), dose: 50.0 mg/kg/injection, schedule: Q01DX009 (ip), vehicle: saline with Tween-80, higher = larger tumour
  T/C: 91 % of control
[4]
  T/C: 119 % of control
endpoint: median tumor weight (est.), dose: 200.0 mg/kg/injection, schedule: Q01DX009 (ip), vehicle: saline with Tween-80, higher = larger tumour
  T/C: 97 % of control

## NC(CSC(c1ccccc1)(c1ccccc1)c1ccccc1)C(=O)O (stereo not drawn)
endpoint: mean tumor weight, dose: 17.5 mg/kg/injection, schedule: Q02DX011 (ip), vehicle: acid diluted with saline, higher = larger tumour
  T/C: 103 % of control
endpoint: mean tumor weight, dose: 17.5 mg/kg/injection, schedule: Q02DX011 (ip), vehicle: saline, higher = larger tumour
  T/C: 71 % of control
endpoint: mean tumor weight, dose: 35.0 mg/kg/injection, schedule: Q02DX011 (ip), vehicle: acid diluted with saline, higher = larger tumour
  T/C: 87 % of control
endpoint: mean tumor weight, dose: 35.0 mg/kg/injection, schedule: Q02DX011 (ip), vehicle: saline, higher = larger tumour
  T/C: 53 % of control
endpoint: mean tumor weight, dose: 70.0 mg/kg/injection, schedule: Q02DX011 (ip), vehicle: acid diluted with saline, higher = larger tumour
  T/C: 24 % of control
endpoint: mean tumor weight, dose: 70.0 mg/kg/injection, schedule: Q02DX011 (ip), vehicle: saline, higher = larger tumour
  T/C: 37 % of control
endpoint: median tumor weight (est.), dose: 17.5 mg/kg/injection, schedule: Q02DX011 (ip), vehicle: acid diluted with saline, higher = larger tumour
  T/C: 490 % of control
endpoint: median tumor weight (est.), dose: 17.5 mg/kg/injection, schedule: Q02DX011 (ip), vehicle: saline, higher = larger tumour
  T/C: 65 % of control
endpoint: median tumor weight (est.), dose: 35.0 mg/kg/injection, schedule: Q02DX011 (ip), vehicle: acid diluted with saline, higher = larger tumour
  T/C: 336 % of control
endpoint: median tumor weight (est.), dose: 35.0 mg/kg/injection, schedule: Q02DX011 (ip), vehicle: saline, higher = larger tumour
  T/C: 49 % of control
endpoint: median tumor weight (est.), dose: 70.0 mg/kg/injection, schedule: Q02DX011 (ip), vehicle: acid diluted with saline, higher = larger tumour
  T/C: 293 % of control
endpoint: median tumor weight (est.), dose: 70.0 mg/kg/injection, schedule: Q02DX011 (ip), vehicle: saline, higher = larger tumour
  T/C: 5 % of control

## C[CH2][Ge]1([CH2]C)[CH2]CC2(CCN(CCCN(C)C)C2)C[CH2]1
endpoint: mean tumor weight, dose: 12.5 mg/kg/injection, schedule: Q02DX011 (ip), vehicle: saline, higher = larger tumour
  T/C: 110 % of control
endpoint: mean tumor weight, dose: 25.0 mg/kg/injection, schedule: Q02DX011 (ip), vehicle: saline, higher = larger tumour
  T/C: 79 % of control and 91 % of control
endpoint: mean tumor weight, dose: 50.0 mg/kg/injection, schedule: Q02DX011 (ip), vehicle: saline, higher = larger tumour
  T/C: 107 % of control and 82 % of control
endpoint: median tumor weight (est.), dose: 12.5 mg/kg/injection, schedule: Q02DX011 (ip), vehicle: saline, higher = larger tumour
  T/C: 94 % of control
endpoint: median tumor weight (est.), dose: 25.0 mg/kg/injection, schedule: Q02DX011 (ip), vehicle: saline, higher = larger tumour
  T/C: 74 % of control
endpoint: median tumor weight (est.), dose: 50.0 mg/kg/injection, schedule: Q02DX011 (ip), vehicle: saline, higher = larger tumour
  T/C: 74 % of control

## O=C(O)CC(NC(=O)CP(=O)(O)O)C(=O)O (stereo not drawn)
endpoint: median survival time, dose: 38.9 mg/kg/injection, schedule: Q01DX004 (ip), vehicle: saline, higher = longer survival
  T/C: 109 % of control
endpoint: median survival time, dose: 64.8 mg/kg/injection, schedule: Q01DX004 (ip), vehicle: saline, higher = longer survival
  T/C: 114 % of control
endpoint: median survival time, dose: 75.0 mg/kg/injection, schedule: Q02DX010 (ip), vehicle: saline, higher = longer survival
  T/C: 176 % of control
endpoint: median survival time, dose: 150.0 mg/kg/injection, schedule: Q02DX010 (ip), vehicle: saline, higher = longer survival
  T/C: 169 % of control
endpoint: median survival time, dose: 180.0 mg/kg/injection, schedule: Q01DX004 (ip), vehicle: saline, higher = longer survival
  T/C: 124 % of control
endpoint: median survival time, dose: 300.0 mg/kg/injection, schedule: Q02DX010 (ip), vehicle: saline, higher = longer survival
  T/C: 181 % of control

## Cc1c2oc3c(C)ccc(C(=O)N[C@@H]4C(=O)N[C@H](C(C)C)C(=O)N5CCC[C@H]5C(=O)N(C)CC(=O)N(C)[C@@H](C(C)C)C(=O)O[C@H]4C)c3nc-2c(C(=O)N[C@@H]2C(=O)N[C@H](C(C)C)C(=O)N3CCC[C@H]3C(=O)N(C)CC(=O)N(C)[C@@H](C(C)C)C(=O)O[C@H]2C)c(N)c1=O (I: [aThr][dV]P[Sar][NMeV] / II: [aThr][dV]P[Sar][NMeV]; ester I:1-I:C, II:1-II:C; linker I:N-II:N via Actinocin(9to1))
endpoint: median survival time, dose: 0.01 mg/kg/injection, schedule: Q04DX006 (ip), vehicle: saline, higher = longer survival
  T/C: 102 % of control
endpoint: median survival time, dose: 0.03 mg/kg/injection, schedule: Q04DX006 (ip), vehicle: saline, higher = longer survival
  T/C: 95 % of control
endpoint: median survival time, dose: 0.06 mg/kg/injection, schedule: Q04DX006 (ip), vehicle: saline, higher = longer survival
  T/C: 102 % of control
endpoint: median survival time, dose: 0.12 mg/kg/injection, schedule: Q04DX006 (ip), vehicle: saline, higher = longer survival
  T/C: 102 % of control
endpoint: median tumor weight (est.), dose: 4.7 micrograms/kg/injection, schedule: Q02DX011 (ip), vehicle: saline, higher = larger tumour
  T/C: 78 % of control
endpoint: median tumor weight (est.), dose: 7.8 micrograms/kg/injection, schedule: Q02DX011 (ip), vehicle: saline, higher = larger tumour
  T/C: 109 % of control
endpoint: median tumor weight (est.), dose: 13.0 micrograms/kg/injection, schedule: Q02DX011 (ip), vehicle: saline, higher = larger tumour
  T/C: 66 % of control
endpoint: median tumor weight (est.), dose: 21.6 micrograms/kg/injection, schedule: Q02DX011 (ip), vehicle: saline, higher = larger tumour
  T/C: 83 % of control
endpoint: median tumor weight (est.), dose: 36.0 micrograms/kg/injection, schedule: Q02DX011 (ip), vehicle: saline, higher = larger tumour
  T/C: 59 % of control
endpoint: median tumor weight (est.), dose: 60.0 micrograms/kg/injection, schedule: Q02DX011 (ip), vehicle: saline, higher = larger tumour
  T/C: 78 % of control
endpoint: median tumor weight (est.), dose: 100.0 micrograms/kg/injection, schedule: Q02DX011 (ip), vehicle: saline, higher = larger tumour
  T/C: 51 % of control

## CN(C)/N=N/c1nc[nH]c1C(N)=O
endpoint: median survival time, dose: 13.5 mg/kg/injection, schedule: Q04DX006 (ip), vehicle: saline with Tween-80, higher = longer survival
  T/C: 96 % of control
endpoint: median survival time, dose: 27.0 mg/kg/injection, schedule: Q02DX030 (ip), vehicle: saline with Tween-80, higher = longer survival
  T/C: 177 % of control
endpoint: median survival time, dose: 27.0 mg/kg/injection, schedule: Q04DX006 (ip), vehicle: saline with Tween-80, higher = longer survival
  T/C: 122 % of control
endpoint: median survival time, dose: 54.0 mg/kg/injection, schedule: Q02DX030 (ip), vehicle: saline with Tween-80, higher = longer survival
  T/C: 191 % of control
